ChEMBL document CHEMBL3507680, “University of Dundee, Gates Library screen for HepG2 cell viability”

Assay: Human HepG2 cell viability assay in 384 well format
Format: toxicity, cell-based
Parameters: dose 125 nL, time 70.5 hour; concentration not given beside the values
Conditions: HepG2 cells, read-out: Inhibition

Structure (SMILES) | cytotoxicity at 70.5 h [%]
COC(=O)C1CCN(C(=O)NCC(C)Cc2cccs2)CC1 (stereo unspecified) | -14.5
Cc1nn(C)c(Cl)c1C1CCCN1C(=O)c1nccnc1N (stereo unspecified) | -11.6
CCSCc1ccnc(NC(=O)C2CCCO2)c1 (stereo unspecified) | -2.71
Cc1csc(CNC(=O)NC2CCCN(S(C)(=O)=O)C2)n1 (stereo unspecified) | -12.3
CCCN1CCc2c(C(=O)N(C)Cc3ccccn3)nn(C)c2C1 | -6.22
CC(C)N1CCC(N2CCN(C3CCC3)CC2CCO)CC1 (stereo unspecified) | -9.59
Cc1nc(O)cc(C2CCCN(C(=O)c3cccc(N(C)C)c3)C2)n1 (stereo unspecified) | 5.24
O=C(NC1CCCOc2cc(Cl)ccc21)c1ccc(=O)[nH]n1 (stereo unspecified) | -13.7
CN(C(=O)Cn1nc(-c2ccccc2Cl)ccc1=O)C1CCS(=O)(=O)C1 (stereo unspecified) | -18.5
CC(C)OCc1ccc(CNC(=O)NC2(CO)CCCC2)cc1 | -10.3
CN1CCN([C@H]2CCN(C(=O)c3nn(C)cc3Cl)C[C@H]2CCCO)CC1 | -10.4
COCCCn1ccc(NS(=O)(=O)c2cc(F)c(C)cc2F)n1 | -12.2
O=C([C@@H]1C[C@@H]2CCN(CCc3ccccc3)C[C@H]2O1)N1CCCC1 | -3.84
O=C(c1cnccn1)N1CCN2C[C@H](OCc3ccccc3F)C[C@H]2C1 | -6.71
O=C(C1CNCCN1C(=O)CCc1cccnc1)N1CCOCC1 (stereo unspecified) | 3.27
CNC(=O)c1cc(C2CCCNC2)n[nH]1 (stereo unspecified) | 21.1
CCc1ncc(C(=O)N2CCCN(C3CCCCC3)CC2)cn1 | 10.7
Nc1ncc(-c2cccc(NC(=O)[C@@H]3CCCCN3)c2)cn1 | -4.27
Cn1c(C2CC2)nc2c1CCN(CC(=O)Nc1nncs1)C2 | -18.2

Structure (SMILES) | cytotoxicity at 70.5 h [%]
CN(Cc1ccc(F)cc1F)Cc1cc2c(cc1Br)OCCO2 | -6.67
Cc1cc(C)cc(CNC(c2ccccc2)c2nccn2C)c1 (stereo unspecified) | 1.26
CC1CCC(NS(=O)(=O)CC(=O)NCC2CCC2)CC1 (stereo unspecified) | -13.2
Cc1noc([C@@]23CCO[C@@H]2CCN(CC2CCOCC2)C3)n1 | -5.71
Cc1nc(-c2ccsc2)ccc1C(=O)NCC(C)N1CCOCC1 (stereo unspecified) | -4.37
COC(=O)C(NC(=O)Nc1ccc(C(C)=O)cc1)C(C)C (stereo unspecified) | -5.76
CCS(=O)(=O)NCc1nc(C)cc(N2CCOCC2)n1 | -6.72
O=C1COC2(CCN(Cc3cccnc3)CC2)CN1c1ccccc1 | -8.85
CS(=O)(=O)NC1CCCN(C(=O)Nc2cccnc2)C1 (stereo unspecified) | 25.1
Cc1ccc(N2CCC3(CCC(=O)N3)CC2)nn1 | -10
Cn1cc(I)c(C(=O)NCCCn2cc(Br)cn2)n1 | 0.223
CCCNS(=O)(=O)c1ccc(C(=O)NC(CC)c2cnn(C)c2)cc1 (stereo unspecified) | -4.79
OC1(CN2CCC(Cc3ncccn3)CC2)CCCCC1 | -5.56
CCOc1ncccc1-c1cc2c(cc1C(N)=O)OCO2 | -3.42
Cc1cnn(CCNCc2ccccc2F)c1 | 0.747
COc1ccccc1C(NC(=O)NC1CC1)c1noc(C)n1 (stereo unspecified) | -9
CCCS(=O)(=O)N1CC[C@H]2O[C@H](c3nnc(C)o3)CC[C@H]21 | 11.3
O=C(c1cscn1)N1CCC2(CN(Cc3nccs3)C2)C1 | -11.9
CCc1[nH]c2c(CNc3cnccn3)cc(F)cc2c1C | -2.66

Structure (SMILES) | cytotoxicity at 70.5 h [%]
O=C(c1cccc(-c2ccc(F)cc2)c1)N1CCC2(CC1)[C@H](O)C[C@@H]2O | -9.07
O=C1NCCCC[C@@H]1Nc1ccc(-c2nc(C3CC3)no2)cn1 | -2.61
CCN(CC1CCOC1)C(=O)c1ccccc1S(C)(=O)=O (stereo unspecified) | -4.17
Cc1[nH]nc(CCC(=O)NCC2CCN(C3CCCCC3)C2)c1C (stereo unspecified) | -4.71
CCSCCC(=O)NCc1cnn(-c2ccc(F)cc2F)c1 | 7.31
O=C(c1c[nH]c2ncccc12)N1CCC(COc2ccccc2)CC1 | 10.4
COc1cc(CNCc2ccnc(N3CCOCC3)c2)cc(Cl)c1OC | -18.7
CCN(C(C)=O)c1nc(CN2CCCC2Cn2cncn2)cs1 (stereo unspecified) | 17.8
CC(c1ccccn1)N(C)Cc1cccc(C(=O)Nc2nccn2C)c1 (stereo unspecified) | 8.36
Cc1cc(C)n2cc(CN3CCC(N4CCN(C)C4=O)CC3)nc2n1 | -0.599
COc1ccc(CN(C)[C@@H]2CN(C(=O)c3cccnc3)C[C@H]2O)cc1 | 2.56
Clc1cccc(CNC2CCN(CCc3ccncc3)CC2)c1 | 0.526
NC(=O)C1CCN(C(=O)NCc2cccnc2OC2CCCC2)C1 (stereo unspecified) | -5.81
Cc1nc(CN2CCCC3(CCN(c4cccnc4)C3=O)C2)cs1 (stereo unspecified) | 14.2
COCC1CN(Cc2ccc(OC)cc2)Cc2nn(C)cc21 (stereo unspecified) | 8.65
CCN1CCc2[nH]nc(C(=O)N3CCCC3C)c2C1 (stereo unspecified) | 4.99
CNC(=O)c1cc2c(nc1NC(C)C)CCNCC2 | 6.54
c1cnc(NC[C@H]2OC[C@@H]3CCN(Cc4ccncc4)C[C@@H]32)nc1 | 17.4
